For one test, the system named is MGC-803. The test is described as follows: Antiproliferative activity against human MGC-803 cells assessed as inhibition of cell growth measured after 48 hrs by CCK8 method. Format: functional, cell-based. The settings on record: MGC-803, 48 h. On the technique in general: Tetrazolium assays rely on reduction of a dye to a coloured formazan, in cell work by metabolically active cells.

Another test relates to KYSE-30. Kind of test: Antiproliferative activity against human KYSE-30 cells assessed as inhibition of cell growth measured after 48 hrs by CCK8 method. In kind it is functional, cell-based. The settings on record: KYSE-30, 48 h.
The subject of a further test is HCT-116. The test is described as follows: Antiproliferative activity against human HCT-116 cells assessed as inhibition of cell growth measured after 48 hrs by CCK8 method. Format: functional, cell-based. To be noted: HCT-116, 48 h.
Test [1] addresses Tubulin. The test is described as follows: Inhibition of tubulin polymerization (unknown origin) by spectrophotometer analysis. Format: protein-complex assay, Homo sapiens.
A further test concerns PC-3. The test is described as follows: Antiproliferative activity against human PC-3 cells assessed as inhibition of cell growth measured after72 hrs by MTT assay. Format: functional, cell-based.
Test [2] has as its target Tubulin. Kind of test: Inhibition of tubulin polymerization (unknown origin). In kind it is protein-complex assay, Homo sapiens.
A further test deals with HeLa. The test is described as follows: Growth inhibition of human HeLa cells. Format: functional.

For `COc1cc(N(Cc2c(C)noc2C)C(=O)Cn2cc(CSc3nc4ccccc4s3)nn2)cc(OC)c1OC`, the IC50 with MGC-803, in the test on KYSE-30 and in the test with HCT-116 was over 80 µM in each case.
On to `COc1ccc(CN(C(=O)Cn2cc(CSc3nc4ccccc4s3)nn2)c2cc(OC)c(OC)c(OC)c2)cc1Br`, for which the IC50 came to 0.82 µM with MGC-803, 1.14 µM in the test on KYSE-30 and 1.33 µM with HCT-116.
The corresponding values for `COc1cc(N(Cc2ccc(F)cc2)C(=O)Cn2cc(CSc3nc4ccccc4s3)nn2)cc(OC)c1OC` are over 80 µM, over 80 µM and over 80 µM.
As to `COc1cc(C(=O)c2nc3cc(Br)ccc3s2)cc(OC)c1OC`, the 50% inhibitory concentration (IC50) at Tubulin [1] was determined as 13.1 µM.
On to `COc1ccc(CN(C(=O)Cn2cc(CSc3nc4ccccc4s3)nn2)c2cc(OC)c(OC)c(OC)c2)cc1OC`, for which the IC50 in the test on MGC-803 worked out at 1.56 µM; with KYSE-30, 1.74 µM; with HCT-116, 2.19 µM.
For `COc1cc(N(Cc2c(C)noc2C)C(=O)CSc2nc3ccccc3s2)cc(OC)c1OC`, in the test with PC-3, the IC50 came out at 2.04 µM.
With `COc1ccc(CN(C(=O)Cn2cc(CSc3nc4ccccc4s3)nn2)c2cc(OC)c(OC)c(OC)c2)cc1`, the IC50 in the test on MGC-803 is 1.03 µM; in the test with KYSE-30 it was 1.44 µM; in the test with HCT-116, 1.68 µM.
For the compound `COc1cc(N(Cc2ccc(Br)cc2)C(=O)Cn2cc(CSc3nc4ccccc4s3)nn2)cc(OC)c1OC`, the half-inhibitory concentration (IC50) was 74.3 µM with MGC-803, over 80 µM with KYSE-30 and 60.1 µM with HCT-116.
The corresponding values for `COc1ccc(CN(C(=O)Cn2cc(CSc3nc4ccccc4s3)nn2)c2ccc(Br)cc2)cc1` are 53.3 µM, 35.5 µM and 60.3 µM.
On to `COc1ccc(CN(C(=O)Cn2cc(CSc3nc4c(C)cccc4s3)nn2)c2cc(OC)c(OC)c(OC)c2)cc1O`, for which the IC50 with MGC-803 was 0.089 µM; in the test with KYSE-30, 0.067 µM; in the test with HCT-116 it was 0.078 µM.
The like results for `COc1ccc(CN(C(=O)Cn2cc(CSc3nc4ccccc4s3)nn2)c2ccc(Cl)cc2)cc1` were, in that order, 62.1 µM, over 80 µM and 59.5 µM.
The corresponding values for `COc1cc(N(Cc2ccc(Cl)cc2)C(=O)Cn2cc(CSc3nc4ccccc4s3)nn2)cc(OC)c1OC` are over 80 µM, over 80 µM and over 80 µM.
The corresponding values for `COc1ccc(CN(C(=O)Cn2cc(CSc3nc4ccc(Cl)cc4s3)nn2)c2cc(OC)c(OC)c(OC)c2)cc1O` are 0.069 µM, 0.072 µM and 0.062 µM.
As for `COc1cc2c(c(OC)c1OC)-c1ccc(OC)c(=O)cc1[C@@H](NC(C)=O)CC2` [COLCHICINE], the IC50 in the test with MGC-803 came to 0.046 µM; in the test on KYSE-30 it was 0.048 µM.
In the case of `COc1cc(N(Cc2nc3ccccc3[nH]2)C(=O)Cn2cc(CSc3nc4ccccc4s3)nn2)cc(OC)c1OC`, the IC50 was 40.3 µM in the test on MGC-803, 56.8 µM in the test on KYSE-30 and 68.7 µM with HCT-116.
The like results for `COc1ccc(CN(C(=O)Cn2cc(CSc3nc4ccccc4s3)nn2)c2ccc(OC)cc2)cc1` were, in that order, 14.5 µM, 28.3 µM and 34.2 µM.
As for `COc1ccc(CN(C(=O)Cn2cc(CSc3nc4ccccc4s3)nn2)c2ccc(F)cc2)cc1`, the figures for the IC50 with MGC-803, in the test on KYSE-30 and in the test on HCT-116 were 68.5 µM, 77.6 µM and over 80 µM, respectively.
The like results for `COc1cc(N(Cc2ccc(C)cc2)C(=O)Cn2cc(CSc3nc4ccccc4s3)nn2)cc(OC)c1OC` were, in that order, 2.35 µM, 1.86 µM and 3.97 µM.
The like results for `COc1ccc(CN(C(=O)Cn2cc(CSc3nc4ccccc4s3)nn2)c2ccccc2)cc1` were, in that order, 52.5 µM, 62.2 µM and 63.7 µM.
Regarding `COc1ccc(CN(C(=O)Cn2cc(CSc3nc4ccccc4s3)nn2)c2ccc(C)cc2)cc1`, the IC50 is 46.5 µM in the test on MGC-803, 63.1 µM with KYSE-30 and over 80 µM in the test on HCT-116.
Turning to `COc1cc(N(Cc2cccnc2)C(=O)Cn2cc(CSc3nc4ccccc4s3)nn2)cc(OC)c1OC`, the half-maximal inhibitory concentration (IC50) in the test with MGC-803, in the test with KYSE-30 and in the test on HCT-116 was over 80 µM in each case.
On to `COc1ccc(CN(C(=O)Cn2cc(CSc3nc4ccccc4s3)nn2)c2cc(OC)c(OC)c(OC)c2)cc1F`, for which the IC50 turned out to be 0.29 µM with MGC-803, 0.76 µM in the test on KYSE-30 and 0.47 µM in the test with HCT-116.
The like results for `COc1ccc(CN(C(=O)Cn2cc(CSc3nc4ccc(Br)cc4s3)nn2)c2cc(OC)c(OC)c(OC)c2)cc1O` were, in that order, 0.054 µM, 0.049 µM and 0.064 µM.
For the compound `COc1ccc2nc(-c3ccc(-n4cnnc4-c4cc(OC)c(OC)c(OC)c4)c(C)c3)sc2c1`, the IC50 at Tubulin [2] is 1.91 µM. Halving of growth in the test with HeLa (GI50) required 0.04 µM.
For the compound `COc1ccc(CN(C(=O)Cn2cc(CSc3nc4ccccc4s3)nn2)c2ccc(OC)c(OC)c2)cc1`, the IC50 was 38.5 µM in the test with MGC-803, over 80 µM in the test on KYSE-30 and 52.4 µM with HCT-116.
On Tubulin [2], `COc1ccc2nc(-c3cccnc3-c3cc(OC)c(OC)c(OC)c3)sc2c1` gave an IC50 of 1.67 µM.
With `COc1ccc(CN(C(=O)Cn2cc(CSc3nc4ccccc4s3)nn2)c2cc(OC)c(OC)c(OC)c2)cc1[N+](=O)[O-]`, the concentration for half-maximal inhibition (IC50) in the test with MGC-803 was 8.16 µM; in the test with KYSE-30, 12.1 µM; with HCT-116, 16.2 µM.
Regarding `COc1ccc(CN(C(=O)Cn2cc(CSc3nc4ccccc4s3)nn2)c2cc(OC)c(OC)c(OC)c2)cc1N`, the half-maximal inhibitory concentration (IC50) with MGC-803 stood at 0.088 µM; in the test on KYSE-30, 0.059 µM; in the test on HCT-116, 0.094 µM.
The like results for `COc1cc(CN(C(=O)Cn2cc(CSc3nc4ccccc4s3)nn2)c2cc(OC)c(OC)c(OC)c2)cc(OC)c1OC` were, in that order, over 80 µM, over 80 µM and over 80 µM.
On to `COc1ccc2nc(SCc3cn(CC(=O)N(Cc4ccc(OC)c(O)c4)c4cc(OC)c(OC)c(OC)c4)nn3)sc2c1`, for which the results for the IC50 in the test on MGC-803, in the test with KYSE-30 and in the test on HCT-116 were 0.063 µM, 0.058 µM and 0.126 µM, respectively.

Usually IC50 stands for the midpoint of a concentration-inhibition curve. The GI50 is the concentration that inhibits growth by half.
